The values that follow come from patent US8022178B2, “Modified self-assembling peptides” (Massachusetts Institute of Technology, priority 2006, dated 2011).

In assay [1] the test system is chick Chorioallantoic Membrane. Briefly: Chorioallantoic Membrane (CAM) assay of angiogenesis. The settings on record: hydrogel placed Day 8, histology Day 12, FIG. 30. It counts as in vivo, chicken. As to the method: In vivo study of angiogenesis was performed using Chorioallantoic Membrane (CAM) assay. At Day 8 of fertilized chicken egg incubation, hydrogels of 10 mm diameter with 1 mm thickness were transferred to chick Chorioallantoic Membrane. The hydrogels were selected from Table 19 and gels were formed before the transfer. On Day 12, CAMs were collected for histology. The angiogenesis inside and below the hydrogel were evaluated by histological cross section.

Assay [2] concerns adipose derived stem cells (ADSC). Briefly: ADSC culture in functionalized peptide matrixes: cell migration. The class given is cell-based, human. As to the method:
3-dimensional adipose derived stem cells (ADSC) were cultured in the functionalized peptide matrixes (Table 24) and cell maintenance ability of functionalized self-assembling peptide matrixes was evaluated. ADSCs were suspended in 10% sucrose solution and mixed with peptide solution selected from Table 25. The cell suspended peptide solutions were transferred to the culture inserts (10 mm diameter, Millicell-CM, Millipore) and gels were immediately formed using cell culture medium. Cell numbers seeded in the well were 4×10^4 cells/well.
The peptide solutions shown in Table 25 were loaded in the culture inserts (10 mm diameter, Millicell-CM, Millipore) and gels were formed using cell culture medium (DMEM-F12+10% FBS, Gibco). ADSC were plated at 4×10^4 cells on the inserts and cultured up to 7 Days.
Although the cells were seeded on the surface of the matrix, the cells were migrated well into the matrix.

The next assay relates to MC3T3-E1 cells. Briefly: Three dimensional culturing of MC3T3-E1 in hydrogel (Calcein AM, confocal). The note with it: 14 days of culture; compared to RAD16-1; FIGS. 13A-13D. The class given is cell-based, mouse. As to the method: Three dimensional culturing experiment. MC3T3-E1 cells were obtained and grown to be seeded using the same protocol as described in Example 1. Cells were centrifuged and re-suspended into sucrose solution (10%) at 4×10^6 cells/ml. FHR peptide was dissolved into water to provide a 1.0% w/t solution. 1% RAD16-I solution was obtained as RAD16-I (Puramatrix™, 3DM Inc./BD Bioscience). The pH of the FHR peptide solution was adjusted to pH 5.7 by NaOH solution (i.e., so that cells can be mixed near neutral pH). The cell suspension and the peptide solution (FHR/RAD16-I) were mixed in a ratio of 1:5. The mixed solution were placed in the inserts and the cell culture medium was added to the insert to form the hydrogel. The cells were maintained by the maintenance medium (as described herein).
Fluorescence observation of the cells. After 14 days of culture, the inserts were washed by PBS and then stained by Calcein AM solution (4 uM, Invitrogen). This solution stains the live cells by the green fluorescence when excited by 480 nm light.
The RAD16-1 and FHR hydrogels in the insert was observed by confocal microscope. […] The bright areas show the cells presence. […] The quantitative measurement of proliferation and differentiation effects by the FHR peptide hydrogel were also evaluated (FIGS. 14-16A/B). […]

Turning to Ac(RADA)4-CONH2, the “angiogenesis inside and below the hydrogel” value in assay [1] was “no angiogenesis both inside and below the hydrogel”. Besides, the “migration depth of cells” value in assay [2] (7 days of culturing, FIG. 34) is “migrated less deeper than PRGmx”. Further, in assay [2] (7 days, compared to PRGmx), the “portion of the cell migrated into the hydrogels” value is listed as “larger”.
For the substance “Ac(RADA)4GGFHRRIKA-CONH2 (Ac-RADARADARADARADAGGFHRRIKA-NH2) [FHR = 1% solution; FHR-2P = 2% solution]”, the 3-Dimensional cell proliferation result in the assay with MC3T3-E1 cells is “superior”.
